Read-outs that look alike come from different tables or passages of the source.

As a reminder, the Ki is a dissociation constant, usually derived from enzyme kinetics or from competition with a known ligand. One may read the inhibition as the percentage by which the read-out fell short of the control. A high value points to a strong effect.

The target of series [1] is T1, renal dipeptidase (E.C.3.4.13.11) (Sus scrofa, UniProt P22412).
T1 construct: solubilized preparation of dipeptidase isolated from hog kidneys; from tissue; host or cells: hog kidney
T1 sequence (P22412 17-409): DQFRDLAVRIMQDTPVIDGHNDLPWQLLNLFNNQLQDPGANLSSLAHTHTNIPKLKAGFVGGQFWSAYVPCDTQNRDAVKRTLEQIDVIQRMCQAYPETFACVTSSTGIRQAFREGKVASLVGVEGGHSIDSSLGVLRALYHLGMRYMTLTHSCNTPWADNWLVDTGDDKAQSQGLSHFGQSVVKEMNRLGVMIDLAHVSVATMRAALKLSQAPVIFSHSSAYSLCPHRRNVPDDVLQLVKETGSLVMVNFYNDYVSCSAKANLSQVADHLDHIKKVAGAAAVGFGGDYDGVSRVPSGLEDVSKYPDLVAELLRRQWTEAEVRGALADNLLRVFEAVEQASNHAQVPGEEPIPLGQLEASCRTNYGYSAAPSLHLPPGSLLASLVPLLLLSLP
Put plainly: Inhibition of glycyldehydrophenylalanine (GDP) hydrolysis by renal dipeptidase in vitro. Type of series: biochemical, pig (hog). The procedure: This measured the ability of compounds to inhibit hydrolysis of glycyldehydrophenylalanine (GDP) by a solubilized preparation of dipeptidase isolated from hog kidneys The procedure is as follows to a 1 ml. system containing 50 mM "MOPS" (3-(N-morpholino)propanesulfonic acid) buffer, pH 7.1, is added 5 μg of lyophilized enzyme, and the test compound at a final concentration of 0.1 mM. After a five minute incubation at 37° C., GDP is added to a final concentration of 0.05 mM. Incubation is continued for 10 minutes, at 37° C. and hydrolysis of GDP is measured by the change in optical density with time at 275 nm. Inhibition of the enzyme is gauged by comparison to a standard run containing no inhibitor and is expressed as the inhibitor binding constant, Ki.
A 1 ml. system of 50 mM "MOPS" buffer, pH 7.1, is used. To this is added 5 μg of the pig renal enzyme and an amount of the test compound to bring its final concentration to 0.1 mM. After a five minute incubation at 37° C., an amount of GDP is added to bring its final concentration to 0.05 mM. The system is again incubated for 10 minutes, at 37° C. Hydrolysis of GDP is measured by its change in optical density with time at 275 nm. Inhibition of the enzyme is gauged by comparison to a standard run containing no inhibitor and is presented as percent inhibition.

The nature of series [2]: Plasma level of thienamycin class compound in the mouse. The format is in vivo. The following applies: po, 10 mg/kg; for concentration at 0.5 h: 30 minutes; for concentration at 1 h: 60 minutes; for concentration at […]: 90 minutes. The procedure:
(§1) An in vivo assay is conducted using 34 Charles River CD female mice. Seventeen of the mice are administered 40 mg/kg of the inhibitor 7-(L-2-amino-2-carboxyethylthio)-2-(2,2-dimethylcyclopropanecarboxamido)-2-heptenoic acid subcutaneously, and an additional 40 mg/kg per os. Immediately thereafter they and an additional 17 mice are administered 10 mg/kg of the thienamycin class compoud (±)-[5R,6S]-2-ethylthio-6[(R)-1-hydroxyethyl]-pen-2-em-3-sodiocarboxylate by oral gavage. The level of the latter compound in plasma is tested at 10, 30, 60 and 90 minutes using 3 mice from each group at each time period.

Series [3] is described as follows: Urinary recovery of thienamycin class compound in the mouse. Type of series: in vivo. The following applies: urine, po, 10 mg/kg; for dose excreted: Total. The procedure:
as §1
The remaining 5 mice from each group are tested for urinary recovery of the thienamycin class compound with the following results.

Setting [4] is: concentration producing 50% inhibition, substrate GDP 0.05 mM, pH 7.1, 37° C., read-out: Ki.
[5] abbreviates: 10 mg/kg oral plus inhibitor (40 mg/kg SC + 40 mg/kg per os).

In the case of `CC(=N)NCCCCC/C=C(\NC(=O)C1CC1(C)C)C(=O)O` (stereo not shown) [Compound 15], the inhibition constant Ki in series [1] (setting [4]) was determined as 720 nM.

In the case of `C/C=C(\NC(=O)CC(C)CC(C)(C)C)C(=O)O` (stereo not shown) [Compound 5], the Ki in series [1] (setting [4]) was 4400 nM.

`CC1(C)CC1C(=O)N/C(=C\CCc1ccccc1)C(=O)O` (stereo not shown) [Compound 53]: the Ki in series [1] (setting [4]) came to 330 nM.

Consider `CC1(C)CC1C(=O)N/C(=C\c1ccccc1)C(=O)O` (stereo not shown) [Compound 46], for which, in series [1] (setting [4]), the Ki is 620 nM.

Turning to `CC(C)(C)C/C=C(\NC(=O)C1CC1(C)C)C(=O)O` (stereo not shown) [Compound 62], the Ki in series [1] (setting [4]) was 340 nM.

With `C/C=C(\NC(=O)CCCCCCC)C(=O)O` [Compound 19, Z-2-octanamido-2-butenoic acid], the Ki in series [1] (setting [4]) came out at 26000 nM.

Take `CC/C=C(\NC(=O)CC(C)C)C(=O)O` [Compound 4]: the Ki in series [1] (setting [4]) came out at 3200 nM.

On to `CC1(C)CC1C(=O)N/C(=C\CCS(C)(=O)=O)C(=O)O` (stereo not shown) [Compound 55], for which, in series [1] (setting [4]), the Ki amounted to 500 nM.

For `CC1(C)CC1C(=O)N/C(=C\CCCCC[N+](C)(C)C)C(=O)[O-]` (stereo not shown) [Compound 14], the Ki in series [1] (setting [4]) stood at 1110 nM.

`CCCCC/C=C(\NC(=O)C1CC1(C)C)C(=O)O` (stereo not shown) [Compound 50]: in series [1] (setting [4]), the inhibition constant (Ki) was determined as 170 nM.

Take `C/C=C(\NC(=O)C1CCC1)C(=O)O` [Compound 8]: the Ki in series [1] (setting [4]) worked out at 6200 nM.

The compound `CC1(C)CC1C(=O)N/C(=C\CCCCSC[C@H](N)C(=O)O)C(=O)O` (stereo partly shown) [Compound 17] came in with a Ki in series [1] of 210 nM.

With `COCCC/C=C(\NC(=O)C1CC1(C)C)C(=O)O` (stereo not shown) [Compound 60], the Ki in series [1] (setting [4]) came to 280 nM.

With `C/C=C(\NC(=O)C1CC1(C)CC)C(=O)O` (stereo not shown) [Compound 40], the Ki in series [1] (setting [4]) was 450 nM.

Regarding `CSCC/C=C(\NC(=O)C1CC1(C)C)C(=O)O` (stereo not shown) [Compound 54], the Ki in series [1] (setting [4]) stood at 120 nM.

For the compound `C/C=C(\NC(=O)C1CC1C(C)(C)C)C(=O)O` (stereo not shown) [Compound 38], in series [1] (setting [4]), the inhibition constant Ki is 6500 nM.

For the compound `C/C=C(\NC(=O)CCCC1CCCCC1)C(=O)O` [Compound 21], the Ki in series [1] (setting [4]) was 30000 nM.

As to `C/C=C(\NC(=O)CC1CC1)C(=O)O` [Compound 22], the Ki in series [1] (setting [4]) came to 22000 nM.

`C/C=C(\NC(=O)CCC)C(=O)O` [Compound 20, Z-2-butyramido-2-butenoic acid]: the Ki in series [1] (setting [4]) is 30000 nM.

Turning to `O=C(O)CC/C=C(\NC(=O)C1CC1)C(=O)O` [Compound 33], the inhibition constant Ki in series [1] (setting [4]) was found to be 5000 nM.

The compound `CC(C)/C=C(\NC(=O)C1CC1(C)C)C(=O)O` (stereo not shown) [Compound 41] returned an inhibition at 100 µM in series [1] (10^-4 M inhibitor, 0.05 mM GDP, pH 7.1, 37° C.) of 98%. Further, the Ki in series [1] (setting [4]) amounted to 540 nM.

Regarding `CCCCCCCCCC/C=C(\NC(=O)C1CC1(C)C)C(=O)O` (stereo not shown) [Compound 58], the inhibition constant (Ki) in series [1] (setting [4]) was 140 nM.

With `C/C=C(\NC(=O)CC(C)CCOC)C(=O)O` (stereo not shown) [Compound 34], the Ki in series [1] (setting [4]) turned out to be 9000 nM.

For the compound `CC(C)CC/C=C(\NC(=O)C1CC1(C)C)C(=O)O` (stereo not shown) [Compound 63], the Ki in series [1] (setting [4]) is 150 nM.

Take `C/C=C(\NC(=O)CCCc1ccccc1)C(=O)O` [Compound 37]: the Ki in series [1] (setting [4]) is 11000 nM.

Consider `C/C=C(\NC(=O)C1CCCC1)C(=O)O` [Compound 24], for which, in series [1] (setting [4]), the Ki worked out at 30000 nM.

For `C/C=C(\NC(=O)C1CC1(C)C(C)C)C(=O)O` (stereo not shown) [Compound 44], in series [1] (setting [4]), the Ki was 3000 nM.

Turning to `C/C=C(\NC(=O)CC1CCC1)C(=O)O` [Compound 9], the Ki in series [1] (setting [4]) is 6600 nM.

Take `CCSC1=C(C(=O)O)N2C(=O)[C@H]([C@@H](C)O)[C@H]2S1` (relative stereo) [Thienamycin Class Compound, (±)-[5R,6S]-2-ethylthio-6[(R)-1-hydroxyethyl]-pen-2-em-3-sodiocarboxylate]: in series [2] (setting [5]), the concentration at 10 min was found to be 2600 µg/mL, the concentration at 0.5 h was 4800 µg/mL, the concentration at 1 h stood at 6100 µg/mL and the concentration at […] is 3800 µg/mL. In series [2] (compound alone, 10 mg/kg oral), the concentration at 10 min worked out at 3100 µg/mL, the concentration at 0.5 h came out at 3700 µg/mL, the concentration at 1 h came out at 4400 µg/mL and the concentration at […] is 1800 µg/mL. Also, in series [3] (setting [5]), the dose excreted at 1 h amounted to 1.5%, the dose excreted at 3 h turned out to be 2.3% and the dose excreted worked out at 3.8%. In addition, in series [3] (compound alone, 10 mg/kg oral), the dose excreted at 1 h was 1.8%, the dose excreted at 3 h stood at 0.6% and the dose excreted is 2.4%.

Regarding `CC1(C)CC1C(=O)N/C(=C\CC1CCCCC1)C(=O)O` (stereo not shown) [Compound 52], the Ki in series [1] (setting [4]) came to 150 nM.

For `C/C=C(\NC(=O)C1C(C)C1C)C(=O)O` (stereo not shown) [Compound 6], the Ki in series [1] (setting [4]) turned out to be 4600 nM.

For `CC(C)C/C=C(\NC(=O)C1CC1(C)C)C(=O)O` (stereo not shown) [Compound 48], the Ki in series [1] (setting [4]) worked out at 230 nM.

For the compound `C/C=C(\NC(=O)C1CC1CC)C(=O)O` (stereo not shown) [Compound 43], the Ki in series [1] (setting [4]) worked out at 1600 nM.

As to `C[N+](C)(C)CCCCC/C=C(\NC(=O)C1CC1(Cl)Cl)C(=O)[O-]` (stereo not shown) [Compound 13], in series [1] (setting [4]), the Ki worked out at 180 nM.

`C/C=C(\NC(=O)CCCCCBr)C(=O)O` [Compound 35]: the Ki in series [1] (setting [4]) was found to be 19000 nM.

With `CC(NCCCCC/C=C(\NC(=O)C1CC1(C)C)C(=O)O)P(=O)(O)O` (stereo not shown) [Example 18B], the Ki in series [1] (Example 18B, unit inferred, read-out: Ki) came to 160 nM.

As to `COCC/C=C(\NC(=O)C1CC1(C)C)C(=O)O` (stereo not shown) [Compound 61], in series [1] (setting [4]), the Ki is 320 nM.

For `C/C=C(\NC(=O)C1CC1(CC)CC)C(=O)O` (stereo not shown) [Compound 42], the inhibition constant (Ki) in series [1] (setting [4]) was determined as 860 nM.

As for `CCC/C=C(\NC(=O)C1CC1(C)C)C(=O)O` (stereo not shown) [Compound 47], in series [1] (setting [4]), the Ki was 110 nM.

Regarding `CCCC/C=C(\NC(=O)C1CC1(C)C)C(=O)O` (stereo not shown) [Compound 49], the inhibition constant (Ki) in series [1] (setting [4]) was determined as 110 nM.

On to `CCCCC/C=C(\NC(=O)[C@H]1CC1(C)C)C(=O)O` [Compound 66], for which the Ki in series [1] (setting [4]) amounted to 80 nM.

In the case of `CCCCC/C=C(\NC(=O)[C@H]1CC1(C)C)C(=O)O` [dextrorotatory isomer, Z-2-(2,2-dimethylcyclopropanecarboxamido)-2-octenoic acid], the “activity of resolved isomers” value in series [1] (resolved racemic Z-2-(2,2-dimethylcyclopropanecarboxamido)-2-octenoic acid) is reported as “The activity resides in the dextrorotatory isomer”.

On to `C/C=C(\NC(=O)CC(C)CC)C(=O)O` (stereo not shown) [Compound 11], for which the inhibition constant Ki in series [1] (setting [4]) is 10000 nM.

Regarding `CCCCC/C=C(\NC(=O)CC(C)C)C(=O)O` [Compound 39, Z--isovaleramido-2-octenoic acid], in series [1] (setting [4]), the Ki came to 2600 nM.

Regarding `C/C=C(\NC(=O)C1CC1C)C(=O)O` (stereo not shown) [Compound 3], the inhibition constant Ki in series [1] (setting [4]) is 1700 nM.

In the case of `CC/C=C(\NC(=O)C1CC1(C)C)C(=O)O` (stereo not shown) [Compound 45], the Ki in series [1] (setting [4]) was found to be 180 nM.

Regarding `C/C=C(\NC(=O)CCCC)C(=O)O` [Compound 23, Z-2-valeramido-2-butenoic acid], the Ki in series [1] (setting [4]) is 32000 nM.
